# Assay results reported in patent publication US10487115B2, “Proteinaceous compounds and uses therefor” (UNIVERSITY OF CANBERRA, priority 2016, dated 2019).
# * marks the point of attachment. Myristoyl = CCCCCCCCCCCCCC(=O)*
# Assays:
# PKC-θ = target: T1, PKC-θ (Homo sapiens, UniProt Q04759); assay: Nuclear translocation of PKC-θ in PMA-stimulated MCF7 cells (immunofluorescence, Fn/c); assay type: cell-based
# T1 construct: endogenous in cells; host or cells: MCF7
# Experimental: (§1) MCF7 cells were pre-seeded overnight on sterile coverslips in 12 well plates with 1 mL of completed Dulbecco's modified eagle medium (DMEM) before incubating with 50 μM of importinib4759 (synthesized in accordance with Example 1) and importinib4759_O1 (synthesized in accordance with Example 1) for 24 hr. Test peptides were not removed when MCF7 cells were stimulated with 0.65 ng/mL of phorbol 12-myristate 13-acetate (PMA) for 60 hr. Diethylpyrocarbonate (DEPC)-water was used for control (test peptides were dissolved in sterile DEPC-water). After wash with Dulbecco's phosphate buffered saline (DPBS) twice, samples on coverslips were fixed with 4% paraformaldehyde for 10 minutes and stained with PKC-θ (Cat. SC-212), PKC-θ-Phosphor-T538, PKC-β2, PKC-α, Importin α, or Importin 8 primary Antibody respectively and conjugated Alexa-488 secondary Antibody. Cell nucleus was stained with anti-fade 2-(4-amidinophenyl)-6-indolecarbamidine dihydrochloride (DAPI). When samples were dried overnight, Nikon fluorescence microscopy was used to take photos. ImageJ software was used for densimetric analysis. Fn/c was calculated using the formula: Fn/c=(nuclear density-background density)/(cytoplasmic density-background density).
# PKC-α = target: T2, PKC-α (Homo sapiens, UniProt P17252); assay: Localization of PKC-α in PMA-stimulated MCF7 cells (immunofluorescence, Fn/c); assay type: cell-based; settings: 50 μM, p=not significant relative to control
# T2 construct: endogenous in cells; host or cells: MCF7
# Experimental: as §1
# PKC-β2 = target: T3, PKC-β2 (Homo sapiens, UniProt P05771); assay: Localization of PKC-β2 in PMA-stimulated MCF7 cells (immunofluorescence, Fn/c); assay type: cell-based; settings: 50 μM, p=not significant relative to control
# T3 construct: endogenous in cells; host or cells: MCF7
# T3 sequence (P05771 1-673 isoform P05771-2): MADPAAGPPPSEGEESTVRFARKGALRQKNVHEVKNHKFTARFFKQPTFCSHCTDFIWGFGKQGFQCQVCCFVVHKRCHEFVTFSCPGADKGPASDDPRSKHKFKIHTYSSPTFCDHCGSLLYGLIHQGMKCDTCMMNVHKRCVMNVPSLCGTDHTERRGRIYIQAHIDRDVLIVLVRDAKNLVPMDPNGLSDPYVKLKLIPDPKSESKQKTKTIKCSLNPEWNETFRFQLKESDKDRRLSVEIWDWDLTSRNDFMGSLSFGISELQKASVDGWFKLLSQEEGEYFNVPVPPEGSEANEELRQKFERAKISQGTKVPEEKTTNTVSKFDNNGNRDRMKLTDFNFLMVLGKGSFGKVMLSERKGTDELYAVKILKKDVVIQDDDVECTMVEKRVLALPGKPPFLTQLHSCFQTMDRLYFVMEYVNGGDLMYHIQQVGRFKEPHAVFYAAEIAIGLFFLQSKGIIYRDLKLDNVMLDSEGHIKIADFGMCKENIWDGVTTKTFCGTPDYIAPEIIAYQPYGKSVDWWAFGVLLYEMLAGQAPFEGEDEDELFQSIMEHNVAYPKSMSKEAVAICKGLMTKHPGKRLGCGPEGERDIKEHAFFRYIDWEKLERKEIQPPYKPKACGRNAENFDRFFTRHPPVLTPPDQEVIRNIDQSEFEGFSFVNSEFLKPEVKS
# Experimental: as §1
# Importin α = assay: Localization of Importin α in PMA-stimulated MCF7 cells (immunofluorescence, Fn/c); assay type: cell-based, human; settings: 50 μM, p=not significant relative to control
# Experimental: as §1
# Importin 8 = target: T4, Importin 8 (Homo sapiens, UniProt O15397); assay: Localization of Importin 8 in PMA-stimulated MCF7 cells (immunofluorescence, Fn/c); assay type: cell-based; settings: 50 μM, p=not significant relative to control
# T4 construct: endogenous in cells; host or cells: MCF7
# T4 sequence (O15397 whole entry): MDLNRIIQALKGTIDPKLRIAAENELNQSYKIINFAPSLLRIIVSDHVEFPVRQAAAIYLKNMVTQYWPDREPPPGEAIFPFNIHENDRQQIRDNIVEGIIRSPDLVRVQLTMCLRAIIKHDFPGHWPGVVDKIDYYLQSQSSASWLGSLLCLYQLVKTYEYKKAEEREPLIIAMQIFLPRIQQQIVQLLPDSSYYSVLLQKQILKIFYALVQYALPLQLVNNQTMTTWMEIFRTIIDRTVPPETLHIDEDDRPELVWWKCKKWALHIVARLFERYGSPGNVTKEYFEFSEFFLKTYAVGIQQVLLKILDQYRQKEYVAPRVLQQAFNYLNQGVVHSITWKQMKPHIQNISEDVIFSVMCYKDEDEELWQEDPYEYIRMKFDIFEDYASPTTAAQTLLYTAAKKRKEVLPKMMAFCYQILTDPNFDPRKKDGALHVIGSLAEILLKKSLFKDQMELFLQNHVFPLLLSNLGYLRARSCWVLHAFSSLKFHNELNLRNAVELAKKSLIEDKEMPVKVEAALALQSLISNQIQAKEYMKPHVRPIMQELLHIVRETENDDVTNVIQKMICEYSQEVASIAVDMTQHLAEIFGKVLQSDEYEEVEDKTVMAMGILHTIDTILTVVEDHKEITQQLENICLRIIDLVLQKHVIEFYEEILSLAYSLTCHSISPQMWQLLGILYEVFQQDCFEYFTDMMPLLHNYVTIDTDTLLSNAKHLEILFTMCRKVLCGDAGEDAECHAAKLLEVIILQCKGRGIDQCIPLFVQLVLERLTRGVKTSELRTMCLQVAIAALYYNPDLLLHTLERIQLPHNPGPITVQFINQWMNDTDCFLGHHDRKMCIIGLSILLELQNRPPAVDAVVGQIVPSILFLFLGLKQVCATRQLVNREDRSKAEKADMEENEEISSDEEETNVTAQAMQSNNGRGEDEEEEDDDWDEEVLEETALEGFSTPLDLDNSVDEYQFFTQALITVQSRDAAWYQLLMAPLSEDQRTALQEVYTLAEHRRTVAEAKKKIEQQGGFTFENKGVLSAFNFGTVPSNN
# Experimental: as §1
# MCF7 cells = assay: CD44hiCD24lo cancer stem cell formation in MCF-IM model (FACS); assay type: cell-based, human; settings: importinib4759 5004 and 100 μM, importinib4759_O1 2504 and 50 μM, 24 hr before PMA 60 hr, p=0.0079 relative to control
# Experimental: (§2) 5×10^4 MCF7 cells were seeded with 1 mL of complete DMEM in 12 well plates overnight, then importinib4759 (5004 and 100 μM; synthesized in accordance with Example 1) or importinib4759_O1 (2504 and 50 μM; synthesized in accordance with Example 1) were used to treat cells for 24 hr before stimulation with PMA for 60 hr. Samples were harvested by trypsinization followed by washing with DPBS containing 2% heat inactivated foetal bovine serum (HI-FBS). FACS staining were performed using anti-human CD44-APC, anti-human CD24-PE, Hoechst, and anti-human EpCAM antibody cocktails. Data was collected from BD FACSLSR-II flow cytometer. Treestar FlowJo was used for data analysis.
# MDA-MB-231 cells = assay: Live cell population after treatment, MDA-MB-231 cells (FACS); assay type: cell-based, human; settings: 48 hr treatment, p<0.0001 relative to control
# Experimental: as §2, with “5×10^4 MDA-MB-231” for “5×10^4 MCF7”, “for 48” for “for 24”, “before samples” for “before stimulation with PMA for 60 hr. Samples”, “2% HI-FBS.” for “2% heat inactivated foetal bovine serum (HI-FBS).”, “staining was” for “staining were”
# MCF7 epithelial cells = assay: Live cell population after treatment, MCF7 cells (FACS); assay type: cell-based, human; settings: same concentration of inhibitor as in MDA-MB-231 cells
# Experimental: as §2
# as §2, with “5×10^4 MDA-MB-231” for “5×10^4 MCF7”, “for 48” for “for 24”, “before samples” for “before stimulation with PMA for 60 hr. Samples”, “2% HI-FBS.” for “2% heat inactivated foetal bovine serum (HI-FBS).”, “staining was” for “staining were”
# NF-κB p65 = assay: Nuclear expression of NF-κB p65 in PMA-stimulated MCF7 cells (immunofluorescence, Fn/c); assay type: cell-based, human; settings: 50 μM 24 hr, PMA 60 hr, p=0.0033
# Experimental: (§3) MCF7 cells were pre-seeded overnight on sterile coverslips in 12 well plates with 1 mL of completed DMEM before inhibiting with 50 μM of importinib4759_O1 (synthesized in accordance with Example 1) for 24 hr. Importinib4759_O1 was removed when MCF7 cells were stimulated with 0.65 ng/mL of PMA for 60 hr. DEPC-water was used as the control (importinib4759_O1 was dissolved in sterile DEPC-water). After washing with DPBS twice, samples on coverslips were fixed with 4% paraformaldehyde for 10 minutes and stained with p65, Rb, or p53 primary Antibody and conjugated Alexa-488 secondary Antibody. Cell nucleus was stained with anti-fade DAPI. When samples were dried overnight, Nikon fluorescence microscopy was used to take photos. ImageJ software was used for densimetric analysis. Fn/c was calculated using the formula: Fn/c=(nuclear density-background density)/(cytoplasmic density-background density).
# p53 = assay: Nuclear expression of p53 in PMA-stimulated MCF7 cells (immunofluorescence, Fn/c); assay type: cell-based, human; settings: 50 μM 24 hr, PMA 60 hr, p=0.0009
# Experimental: as §3
# Rb = assay: Expression of tumor suppressor protein Rb in PMA-stimulated MCF7 cells (immunofluorescence, Fn/c); assay type: cell-based, human; settings: 50 μM 24 hr, PMA 60 hr, p=0.0007
# Experimental: as §3
# MDA-MB-231 xenograft = assay: Balb/c-nude MDA-MB-231 xenograft breast cancer model: tumor volume and cancer stem cell proportion; assay type: in vivo, balb/c-nude mice
# Experimental: A Balb/c-nude MDA-MB-231 xenograft breast cancer model was utilized to determine the effect of the importinib peptides alone and in combination with the chemotherapeutic, docetaxel in comparison to a randomized peptide control.
# Five week old balb/c-nude mice (n=5 per test compound) were injected with MDA-MB-231 human breast carcinoma cell suspensions (2×10^6 cells in 25 μL PBS mixed with 25 μL of BD Matrigel Matrix) subcutaneously into the right mammary gland. Test compounds in a saline vehicle [4 mg/kg docetaxel; 8 mg/kg, 40 mg/kg and 60 mg/kg importinib4759 or importinib4759_O1 (synthesized in accordance with Example 1); 4 mg/kg docetaxel with 8 mg/kg importinib4759 or importinib4759_O1; 4 mg/kg docetaxel with 40 mg/kg importinib4759 or importinib4759_O1; 4 mg/kg docetaxel with 60 mg/kg importinib4759 or importinib4759_O1; or randomized peptide control] were injected intraperitoneally. Tumor volume was assessed using calipers daily over a period of five weeks following treatment. Animals were sacrificed after the five week period. Tumor grafts were removed using resection and processed into single cell suspensions. The percentage of cancer stem cells was determined using FACS analysis. FACS staining was performed using anti-human CD44-APC, anti-human CD24-PE, Hoechst, and anti-human EpCAM antibody cocktails. Data was collected from BD FACSLSR-II flow cytometer. Treestar FlowJo was used for data analysis. Significance was determined using a one-way ANOVA or Mann-Whitney T-test.
# T1 sequence (Q04759 whole entry): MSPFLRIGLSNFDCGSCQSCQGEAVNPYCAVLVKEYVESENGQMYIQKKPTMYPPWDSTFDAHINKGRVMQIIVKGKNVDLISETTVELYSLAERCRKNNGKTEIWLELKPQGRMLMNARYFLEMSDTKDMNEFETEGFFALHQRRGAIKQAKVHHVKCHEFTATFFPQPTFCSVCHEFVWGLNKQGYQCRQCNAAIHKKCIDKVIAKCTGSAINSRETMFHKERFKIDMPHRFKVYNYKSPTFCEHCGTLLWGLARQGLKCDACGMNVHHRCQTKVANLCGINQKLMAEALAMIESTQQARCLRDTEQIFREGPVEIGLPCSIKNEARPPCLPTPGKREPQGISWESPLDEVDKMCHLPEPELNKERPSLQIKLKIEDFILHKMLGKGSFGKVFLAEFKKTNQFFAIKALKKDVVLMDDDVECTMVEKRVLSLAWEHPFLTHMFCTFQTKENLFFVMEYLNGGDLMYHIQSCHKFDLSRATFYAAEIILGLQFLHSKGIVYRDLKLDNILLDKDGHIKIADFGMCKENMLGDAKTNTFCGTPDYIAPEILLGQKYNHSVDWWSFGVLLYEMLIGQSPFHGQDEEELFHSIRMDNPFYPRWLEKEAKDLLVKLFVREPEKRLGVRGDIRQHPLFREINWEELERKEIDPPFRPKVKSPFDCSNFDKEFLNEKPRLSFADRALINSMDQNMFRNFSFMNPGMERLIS
substance,measurement,setting,value
"RRKRIDWPPRRKPK-OH (Myristoyl-RRKRIDWPPRRKPK-OH; SMILES CCCCCCCCCCCCCC(=O)N[C@@H](CCCNC(=N)N)C(=O)N[C@@H](CCCNC(=N)N)C(=O)N[C@@H](CCCCN)C(=O)N[C@@H](CCCNC(=N)N)C(=O)N[C@H](C(=O)N[C@@H](CC(=O)O)C(=O)N[C@@H](Cc1c[nH]c2ccccc12)C(=O)N1CCC[C@H]1C(=O)N1CCC[C@H]1C(=O)N[C@@H](CCCNC(=N)N)C(=O)N[C@@H](CCCNC(=N)N)C(=O)N[C@@H](CCCCN)C(=O)N1CCC[C@H]1C(=O)N[C@@H](CCCCN)C(=O)O)[C@@H](C)CC) [Importinib4759_O1, tested N-myristoylated]",blocking of nuclear PKC-θ (nuclear translocation),"PKC-θ; 50 μM peptide 24 hr, then PMA 0.65 ng/mL 60 hr, N-myristoylated peptides, p<0.0001 relative to control",capable of blocking nuclear PKC-θ
same,capacity to prevent PKC-θ nuclear translocation compared to importinib4759,"PKC-θ; 50 μM, PMA stimulated",significantly higher capacity to prevent PKC-θ nuclear translocation compared to importinib4759
same,effect on distribution of PKC-α,PKC-α,had no effect
same,effect on distribution of PKC-β2,PKC-β2,had no effect
same,effect on distribution of Importin α,Importin α,had no effect
same,effect on distribution of Importin 8,Importin 8,had no effect
same,cancer stem cell (CD44hiCD24lo) formation,MCF7 cells,inhibited
same,effect on live cell population of MDA-MB-231 cells,MDA-MB-231 cells,cleared virtually all MDA-MB-231 cells
same,effect on live cell population of MCF7 epithelial cells,MCF7 epithelial cells,minimal effect
same,nuclear expression of NF-κB p65,NF-κB p65,significantly inhibited nuclear expression
same,nuclear expression of p53,p53,significantly inhibited nuclear expression
same,expression of tumor suppressor protein Rb,Rb,enhanced expression
same,cancer stem cell (CD44highCD24low) population in tumor grafts,MDA-MB-231 xenograft; FACS of resected tumor grafts after five weeks,significantly abrogated the cancer stem cell population
same,tumor volume in comparison to the control or docetaxel treatment alone,"MDA-MB-231 xenograft; intraperitoneal, peptide 8, 40 and 60 mg/kg, docetaxel 4 mg/kg, five weeks",abrogated tumor volume
same,tumor volume over time,"MDA-MB-231 xenograft; intraperitoneal, peptide 8, 40 and 60 mg/kg, docetaxel 4 mg/kg, five weeks, n=5",reduced tumor volume over time
